Measured values taken from article PMC3041857 (Journal of medicinal chemistry, 2011).

tested on: MDR1-MDCK cell monolayers

Row | Structure (SMILES) | Permeability (in words)
1 | COc1ccc(-c2csc(Nc3ccc4ccccc4n3)n2)cc1OC [Compound 18, [4-(3,4-dimethoxyphenyl)-thiazol-2-yl]-quinolin-2-yl-amine] | greater permeability in the absorptive direction
2 | COc1ccc(-c2csc(Nc3ccc(C(F)(F)F)cn3)n2)cc1OC [Compound 12, [4-(3,4-dimethoxyphenyl)-thiazol-2-yl]-(5-trifluoromethylpyridin-2-yl)-amine] | greater permeability in the absorptive direction
3 | Cc1ccc(Nc2nc(-c3c(-c4ccccc4)noc3C)cs2)nc1 [Compound 28, [4-(5-Methyl-3-phenylisoxazol-4-yl)-thiazol-2-yl]-(5-methylpyridin-2-yl)-amine] | greater permeability in the absorptive direction
